Data taken from patent US20210346357A1 (priority 2020, published 2021).

Test system: Symptomatic Acute Lung Injury Associated with COVID-19
Test: Phase 2 study Part 1, inhaled compound 1 in hospitalized COVID-19 patients
Conditions: for # Subjects Respiratory Failure-Free / # Subjects Alive: number of subjects; for IFN-γ, within-group percent difference in geometric mean from baseline / IL-6, within-group percent difference in geometric mean from baseline / IL-8, within-group percent difference in geometric mean from baseline / IL-10, within-group percent difference in geometric mean from baseline / IP-10, within-group percent difference in geometric mean from baseline / MCP-1, within-group percent difference in geometric mean from baseline / MDC, within-group percent difference in geometric mean from baseline / RAGE, within-group percent difference in geometric mean from baseline / TARC, within-group percent difference in geometric mean from baseline / hsCRP, within-group percent difference in geometric mean from baseline: matched D1 and D7 samples; for Time to Hospital Discharge (Days) Mean ± SD: still hospitalized or died = 28 days; for # Subjects Alive, percent / Died (All-Cause Mortality), number / # Subjects Alive: through Day 28
[1] = COVID-19 patients, 3 mg, Day 28
[2] = COVID-19 patients, 10 mg, Day 7
[3] = COVID-19 patients, 10 mg, Day 14
[4] = COVID-19 patients, 10 mg, Day 21
[5] = COVID-19 patients, 10 mg, Day 28
[6] = mostly in the 3 mg and 10 mg doses

## CCc1cc(O)ccc1-c1ccc2c(-c3nc4c([nH]3)CN(C(C)C)[C@H](C(=O)N3CC(N(C)C)C3)C4)n[nH]c2c1 [Compound 1, (S)-(3-(dimethylamino)azetidin-1-yl)(2-(6-(2-ethyl-4-hydroxyphenyl)-1H-indazol-3-yl)-5-isopropyl-4,5,6,7-tetrahydro-3H-imidazo[4,5-c]pyridin-6-yl)methanone]
[1]
  Hospital Discharge, number: 7
  Hospital Discharge, percent: 100%
  Proportion of Subjects Alive and Respiratory Failure-free: 85.7%
  Proportion of Subjects Alive and Respiratory Failure-free, number: 6
  # Subjects Respiratory Failure-Free: 6
COVID-19 patients, 3 mg
  IFN-γ, within-group percent difference in geometric mean from baseline: −90.42%
  IL-6, within-group percent difference in geometric mean from baseline: −80.24%
  IL-8, within-group percent difference in geometric mean from baseline: −48.02%
  IL-10, within-group percent difference in geometric mean from baseline: −70.10%
  IP-10, within-group percent difference in geometric mean from baseline: −81.44%
  MCP-1, within-group percent difference in geometric mean from baseline: −54.15%
  MDC, within-group percent difference in geometric mean from baseline: −23.84%
  RAGE, within-group percent difference in geometric mean from baseline: −82.95%
  TARC, within-group percent difference in geometric mean from baseline: −34.57%
  hsCRP, within-group percent difference in geometric mean from baseline: −74.95%
  Time to Hospital Discharge (Days) Mean ± SD: 15.29 ± 6.651 days
  # Subjects Alive, percent: 100.0%
  Died (All-Cause Mortality), number: 0
  # Subjects Alive: 7
COVID-19 patients, 10 mg
  Clinical Status at Day 28: 1-Not hospitalized, no limitations on activities, number: 5
  Clinical Status at Day 28: 1-Not hospitalized, no limitations on activities, percent: 83.3%
  Clinical Status at Day 28: 2-Not hospitalized, but with limitations on activities and/or requiring home oxygen, number: 1
  Clinical Status at Day 28: 2-Not hospitalized, but with limitations on activities and/or requiring home oxygen, percent: 16.7%
  Clinical Status at Day 28: 3-Hospitalized, not requiring supplemental oxygen, and no longer requiring ongoing medical care, number: 0
  Clinical Status at Day 28: 4-Hospitalized, not requiring supplemental oxygen, but requiring ongoing medical care, number: 0
  Clinical Status at Day 28: 5-Hospitalized, requiring supplemental oxygen, number: 0
  Clinical Status at Day 28: 6-Hospitalized, on non-invasive ventilation or high-flow oxygen devices, number: 0
  Clinical Status at Day 28: 7-Hospitalized, on invasive mechanical ventilation or extracorporeal membrane oxygenation, number: 0
  Clinical Status at Day 28: 8-Death, number: 0
  Still in Hospital at Day 28, number: 0
  Time to Hospital Discharge (Days) Median: 16.50 days
  IFN-γ, within-group percent difference in geometric mean from baseline: −78.59%
  IL-6, within-group percent difference in geometric mean from baseline: −58.84%
  IL-8, within-group percent difference in geometric mean from baseline: −25.87%
  IL-10, within-group percent difference in geometric mean from baseline: −40.57%
  IP-10, within-group percent difference in geometric mean from baseline: −79.32%
  MCP-1, within-group percent difference in geometric mean from baseline: −21.15%
  MDC, within-group percent difference in geometric mean from baseline: −6.70%
  RAGE, within-group percent difference in geometric mean from baseline: −54.44%
  TARC, within-group percent difference in geometric mean from baseline: −21.21%
  hsCRP, within-group percent difference in geometric mean from baseline: −52.13%
  Time to Hospital Discharge (Days) Mean ± SD: 15.17 ± 4.446 days
  # Subjects Alive, percent: 100.0%
  Died (All-Cause Mortality), number: 0
  # Subjects Alive: 6
COVID-19 patients, 10 mg group, baseline value
  Modified Borg Dyspnea Score, Baseline, Mean: 6.00
COVID-19 patients, 10 mg, Day 2
  Modified Borg Dyspnea Score Change from Baseline, Mean: −0.33
COVID-19 patients, 10 mg, Day 3
  Modified Borg Dyspnea Score Change from Baseline, Mean: −1.17
COVID-19 patients, 10 mg, Day 4
  Modified Borg Dyspnea Score Change from Baseline, Mean: −1.50
COVID-19 patients, 10 mg, Day 5
  Modified Borg Dyspnea Score Change from Baseline, Mean: −1.17
COVID-19 patients, 10 mg, Day 6
  Modified Borg Dyspnea Score Change from Baseline, Mean: −1.33
[2]
  Hospital Discharge, number: 0
  Modified Borg Dyspnea Score Change from Baseline, Mean: −1.67
[3]
  Hospital Discharge, number: 2
  Hospital Discharge, percent: 33.3%
[4]
  Hospital Discharge, number: 6
  Hospital Discharge, percent: 100%
[5]
  # Subjects Respiratory Failure-Free, percent: 100.0%
  Hospital Discharge, number: 6
  Hospital Discharge, percent: 100%
  Proportion of Subjects Alive and Respiratory Failure-free: 100.0%
  Proportion of Subjects Alive and Respiratory Failure-free, number: 6
  # Subjects Respiratory Failure-Free: 6
COVID-19 patients, single daily dose of 1 mg, 3 mg, and 10 mg for up to 7 days
  tolerability: generally well tolerated
All compound 1 groups
  % subjects alive/reduced mortality, compared to Placebo: positive trend
  % subjects respiratory-failure free at Day 28, compared to Placebo: positive trend
  clinical improvement, 8-point Clinical Status Scale from Day 1 to Day 28, compared to Placebo: positive trend
  earlier time to hospital discharge, compared to Placebo: positive trend
  improvement in Modified Borg Dyspnea Score in mean change from baseline at Day 7, compared to Placebo: positive trend
[6]
  reduction in alveolar epithelial cell injury marker RAGE: positive trend
  reduction of inflammation markers including hsCRP, IFN-g, IL-6, IP-10: positive trend
